The text below walks through data of patent US9849101B2, “Method for enhancing amidohydrolase activity of fatty acid amide hydrolase” (Research Foundation of the City University of New York, priority 2013, dated 2017).

pIC50: −log10 of the molar value.

One assay has as its target T1, rat brain FAAH (Rattus norvegicus, UniProt P97612).
T1 construct: host or cells: rat brain
T1 sequence (P97612 1-579): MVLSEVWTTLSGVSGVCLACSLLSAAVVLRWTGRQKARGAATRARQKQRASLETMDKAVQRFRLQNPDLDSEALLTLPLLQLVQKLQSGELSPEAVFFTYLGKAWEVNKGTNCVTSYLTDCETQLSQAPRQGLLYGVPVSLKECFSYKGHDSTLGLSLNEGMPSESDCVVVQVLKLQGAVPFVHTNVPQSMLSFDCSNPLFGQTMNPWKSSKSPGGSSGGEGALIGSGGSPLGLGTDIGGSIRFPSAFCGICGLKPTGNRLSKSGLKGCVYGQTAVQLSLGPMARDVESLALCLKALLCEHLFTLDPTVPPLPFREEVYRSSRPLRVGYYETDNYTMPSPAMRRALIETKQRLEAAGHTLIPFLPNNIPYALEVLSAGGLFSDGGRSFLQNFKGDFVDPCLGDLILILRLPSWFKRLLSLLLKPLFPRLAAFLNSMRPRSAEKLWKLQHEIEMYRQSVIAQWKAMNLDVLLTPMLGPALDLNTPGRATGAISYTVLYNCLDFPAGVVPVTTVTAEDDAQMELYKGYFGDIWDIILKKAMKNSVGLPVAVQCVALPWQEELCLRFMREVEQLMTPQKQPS
To be noted: reported value; read-out: IC50 for anandamide hydrolysis; cited from earlier work.

The test system of another assay is rat E18 cortical neurons. Briefly: Viability of cultured primary neurons (calcein fluorescence), tBHP oxidative stress. Type of assay: cell-based.
Assay [1] has as its target T2, rat FAAH (Rattus norvegicus, UniProt P97612).
T2 construct: made in house; host or cells: E. coli TOP10
T2 sequence (P97612 1-579): T1 sequence (P97612 1-579)
Briefly: Ethanolamine inhibition assay, rat FAAH. The class given is biochemical.

The target in a further assay is T3, At-FAAH (Arabidopsis thaliana, UniProt Q7XJJ7).
T3 construct: made in house; host or cells: E. coli TOP10
T3 sequence (Q7XJJ7 1-607): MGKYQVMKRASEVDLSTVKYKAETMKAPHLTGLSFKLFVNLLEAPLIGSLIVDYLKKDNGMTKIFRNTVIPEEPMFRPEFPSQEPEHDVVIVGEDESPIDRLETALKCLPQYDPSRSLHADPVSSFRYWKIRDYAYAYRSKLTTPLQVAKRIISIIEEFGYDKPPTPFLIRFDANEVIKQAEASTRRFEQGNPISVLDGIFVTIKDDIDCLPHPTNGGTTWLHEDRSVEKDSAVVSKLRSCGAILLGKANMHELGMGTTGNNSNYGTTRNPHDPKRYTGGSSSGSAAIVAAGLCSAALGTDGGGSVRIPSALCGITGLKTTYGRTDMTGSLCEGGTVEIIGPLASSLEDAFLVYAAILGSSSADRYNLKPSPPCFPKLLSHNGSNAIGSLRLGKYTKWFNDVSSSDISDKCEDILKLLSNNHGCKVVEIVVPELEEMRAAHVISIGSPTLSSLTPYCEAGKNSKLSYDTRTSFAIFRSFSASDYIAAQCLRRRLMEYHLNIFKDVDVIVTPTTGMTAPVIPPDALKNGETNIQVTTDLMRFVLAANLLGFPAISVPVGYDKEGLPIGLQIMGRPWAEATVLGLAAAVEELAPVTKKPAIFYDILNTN
Briefly: Ethanolamine inhibition assay, At-FAAH. Type of assay: biochemical.

For assay [2], the target named is T2, rat FAAH. Briefly: NAE amidohydrolase assay on purified recombinant rat FAAH. The class given is biochemical.
Assay [3] relates to Arabidopsis thaliana wild type (Col-0) seedlings. Kind of assay: Arabidopsis seedling growth (cotyledon size, primary root elongation). The class given is in vivo.
Assay [4] concerns the target T4, NAE amidohydrolase activity from crude seedling extracts (Arabidopsis thaliana, UniProt Q7XJJ7).
T4 construct: from tissue; host or cells: 11-day-old Arabidopsis thaliana Col-0 seedlings, total solubilized protein
T4 sequence (Q7XJJ7 1-607): T3 sequence (Q7XJJ7 1-607)
Kind of assay: Plant amidohydrolase assay on crude seedling protein extract. The class given is biochemical. Particulars: [1-14C]-NAE 12:0, 11-d-old seedlings, 2 hours.

In assay [5] the target is T5, Arabidopsis thaliana FAAH (AT-FAAH) (Arabidopsis thaliana, UniProt Q7XJJ7).
T5 construct: made in house; host or cells: E. coli TOP10
T5 sequence (Q7XJJ7 1-607): T3 sequence (Q7XJJ7 1-607)
Briefly: NAE amidohydrolase assay on purified recombinant At-FAAH. The class given is biochemical.

Setting [6] is: 2 μg protein, 100 μM-300 μM substrate, TLC.
The mark [7] stands for this setting: 100 μM [1-14C]-NAE 12:0 with 100 μM compound.
Setting [8] is: 100 μM compound, up to 10 mM ethanolamine, 100 μM [1-14C]-NAE 12:0.

What is called pIC50 is −log10 of the IC50, conventionally taken in molar units.

Method for rat E18 cortical neurons: Commercially obtained Sprague/Dawley rat E18 cortical tissue was allowed to settle for 5-10 minutes at room temperature, the shipping media was removed (reserved at 37° C.), and the tissue was enzymatically treated with NeuroPapain dissolved in NeuroPrep Medium (2 mg/ml, 2.5 ml) for 28 minutes at 37° C. with gentle swirling every 7 minutes. Treated tissue was centrifuged for 1.5 minutes at 200×g and the cells were dissociated by gentle trituration in 1 ml of the reserved shipping medium. Cells were collected by centrifugation as above and re-suspended by gentle trituration in 1 ml of NeuroPure plating medium. Viable cells were counted, (Nexcelom Auto T4; Nexcelom Bioscience LLC. Lawrence, Mass.) re-suspended in 9 ml of NeuroPure plating medium plus enough Neurobasal medium (supplemented with B27; GlutaMAX I, 2 mM; Penicillin, 50 U/ml; Streptomycin, 50 μg/ml) to achieve a density of 250,000 cells/ml, and seeded in BD PureCoat™ black-walled amine-coated 96-well plates in a 100 μl volume. […]
Oxidative stress was induced by the addition of concentrated tert-butyl hydrogen peroxide (tBHP) to achieve a final concentration of 7.5 μM. […] For each condition, six replicate wells were measured and the mean value was used for statistical analyses. Data was analyzed and plotted using Prism 5.0 (GraphPad Software Inc., La Jolla, Calif.). […]

`CCCCCCCCCCCCCCCC(=O)NCCO` [NAE 16:0, N-palmitoylethanolamine]: on rat brain FAAH, the pIC50 is 5.29. The “reversal of cardanol-induced exacerbation of tBHP mediated cell death” value in the assay with rat E18 cortical neurons (1 hour prior to addition of 1 nM cardanol-EA) is reported as “dose-dependent reversal”.
As for `NCCO` [ethanolamine], the “NAE hydrolase activity at increasing ethanolamine concentrations” value at rat FAAH [1] (0-100 mM ethanolamine) and at At-FAAH (0-100 mM ethanolamine) was “dose-dependent reduction” in each case.
For the molecule `CCCCCCCCCCCCCCCc1cccc(OCC(=O)NCCO)c1` [PDP-EA, N-(2-hydroxyethyl)-2-(3-pentadecylphenoxy)acetamide], the “apparent Vmax” value (at rat FAAH [2]; in assay [5]) was “increased” throughout. In addition, the “hydrolysis of the compound as substrate to acid form and ethanolamine” value (at rat FAAH [2] (setting [6]); in assay [5] (setting [6])) was “not suitable substrates” each time. Further, the “amidohydrolase activity toward NAE” value (on rat FAAH [2] (setting [7]); in assay [5] (setting [7])) was “increased” throughout. In addition, the “increase of activity by a factor” value was “about 5±2.2” on rat FAAH [2] (100 μM compound, NAE 16:0 and NAE 12:0); “about 4±1.2” in assay [5] (100 μM compound, different [1-14C]-NAEs). In addition, the “Kcat versus solvent control” value on rat FAAH [2] (NAE 20:4 substrate, 100 μM compound) is “increase in Kcat”. The “protection from ethanolamine product inhibition” value at rat FAAH [1] (setting [8]) and on At-FAAH (setting [8]) was “relieved this ethanolamine inhibition almost completely” throughout. In addition, the “reversal of negative seedling growth effects of exogenous NAE 12:0” value in assay [3] (30 μM NAE 12:0, 20 μM compound, 11 days) is “reverse partially”. Also, the “seedling growth (cotyledon size), compound alone” value in assay [3] (compound alone, 11 days) is “positive impact on seedling growth”. Besides, the “reversal of negative effects of NAE 12:0 on cotyledon size” value in assay [3] (with NAE 12:0, 11 days) is “partially reversed”. For the same molecule, the “NAE amidohydrolase activity of crude seedling extracts” value in assay [4] is “enhancement”. For the same molecule, in assay [5] (NAE 12:0 substrate, 100 μM compound, T-test confidence level 95%), the “Km app versus solvent control” value is on record as “No statistical difference”. Moreover, in assay [5] (heat-denaturated enzyme, 100 μM compound), the “non-enzymatic hydrolysis of NAE to free fatty acid” value is given as “no activity”.
Turning to `NC(=O)c1cccc(-c2cccc(OC(=O)NC3CCCCC3)c2)c1` [URB597], the “reversal of cardanol-induced exacerbation of tBHP mediated cell death by FAAH inhibitor” value in the assay with rat E18 cortical neurons is “completely reversed”.
Take `CCCCCCCCCCCC(=O)NCCO` [NAE 12:0, N-lauroylethanolamine, reference compound]: in assay [3] (applied exogenously), the “seedling growth on exogenous application” value was “inhibits seedling growth”.
